{
  "source": "patent US11136292B2",
  "about": "“Plant growth regulator compounds” (SYNGENTA PARTICIPATIONS AG, priority 2016, dated 2021)",
  "test_system": "NK Falkone 2015 corn seeds",
  "experiment": "Corn seed germination under cold stress (Example B1)",
  "format": "in vivo",
  "details": "Zea mays, cold stress 15° C.; for change in vivo at 2 µM: Rate 2 μM; for change in vivo at 10 µM: Rate 10 μM; for change in vivo at 50 µM: Rate 50 μM; for change in vivo at 250 µM: Rate 250 μM",
  "method": "The effect of compounds of formula (I) on the germination of NK Falkone 2015 corn seeds under cold stress was evaluated as follows. NK Falkone corn seeds were sorted by size using 2 sieves, one excluding very big seeds and the other with round holes of 8 to 9 mm diameter. The seeds retained by the latter sieve were used for the germination test. The corn seeds were placed in 24 well plates (each plate was considered as one experimental unit or replicate). Germination was initiated by the addition of 250 μl of distilled water containing 0.5% DMSO per well as a means for compound solubilization. 8 replicates (ie, 8 plates) were used for each treatment characterization. Plates were sealed using seal foil (Polyolefin Art. Nr. 900320) from HJ-BIOANALYTIK. All plates were placed horizontally on trolleys in a climatic chamber at 15° C. The experiment was laid out in a completely randomized design in climatic chamber with 75% Relative Humidity. Foils were pierced, one hole per well using a syringe after 72 hours for experiments performed at 15° C.\nGermination was followed over time by taking photographs at different time points. Image analysis was performed automatically with a macro which was developed using the Image J software. A dynamic analysis of germination was carried out by fitting a logistic curve. Three parameters were calculated from the logistic curve: the T50; the slope and the plateau. All three parameters have a high agronomical relevance and are key requirements to ensure a good early crop-establishment. All the values are expressed as percentages compared to an untreated control. All the three parameters are calculated considering 8 replicates and the kinetic parameters are separately determined for each germination curve. Data in bold indicate germination enhancing statistically significant differences between treated seeds and untreated control (p<0.05). The T50 corresponds to the time needed for half of the seed population to germinate. Higher negative %-values indicate faster germination. The slope indicates how synchronous the germination of the seed population is. Positive values indicate steeper curve; the steeper the curve, the better and more uniform the germination is.",
  "key": {"[1]": {"details": "slope of logistic germination curve, read-out: Slope (% vs control)"}, "[2]": {"details": "time for half of seeds to germinate, control T50 = 110 hours, read-out: T50 (% vs control)"}},
  "note": "Where two headings read alike, the source gives them in different places.",
  "data": [
    {"smiles": "CC1=CC(O/C=C2/C(=O)OC3Cc4ccccc4C23)OC1=O", "note": "(stereo not shown) [Prior art 3]", "values": [
      {"measurement": "change in vivo at 2 µM", "setting": "[1]", "value": -0.7, "unit": "%"},
      {"measurement": "change in vivo at 2 µM", "setting": "[2]", "value": 1.6, "unit": "%"},
      {"measurement": "change in vivo at 10 µM", "setting": "[1]", "value": 2.2, "unit": "%"},
      {"measurement": "change in vivo at 10 µM", "setting": "[2]", "value": 0, "unit": "%"},
      {"measurement": "change in vivo at 50 µM", "setting": "[1]", "value": 4, "unit": "%"},
      {"measurement": "change in vivo at 50 µM", "setting": "[2]", "value": -0.8, "unit": "%"},
      {"measurement": "change in vivo at 250 µM", "setting": "[1]", "value": 14.1, "unit": "%"},
      {"measurement": "change in vivo at 250 µM", "setting": "[2]", "value": -0.5, "unit": "%"}
    ]},
    {"smiles": "COC(=O)/C(=C/OC1C=C(C)C(=O)O1)c1ccccc1", "note": "(stereo not shown) [Prior art 4]", "values": [
      {"measurement": "change in vivo at 2 µM", "setting": "[1]", "value": -7.7, "unit": "%"},
      {"measurement": "change in vivo at 2 µM", "setting": "[2]", "value": 1.2, "unit": "%"},
      {"measurement": "change in vivo at 10 µM", "setting": "[1]", "value": 14.9, "unit": "%"},
      {"measurement": "change in vivo at 10 µM", "setting": "[2]", "value": -3.4, "unit": "%"},
      {"measurement": "change in vivo at 50 µM", "setting": "[1]", "value": -11.4, "unit": "%"},
      {"measurement": "change in vivo at 50 µM", "setting": "[2]", "value": 2.4, "unit": "%"},
      {"measurement": "change in vivo at 250 µM", "setting": "[1]", "value": 4.1, "unit": "%"},
      {"measurement": "change in vivo at 250 µM", "setting": "[2]", "value": 0.1, "unit": "%"}
    ]}
  ]
}
